Results from patent US10184115B2, “Mutated cellobiose dehydrogenase with increased substrate specificity” (DIRECTSENS GMBH, priority 2012, dated 2019).

Target: T1, Myriococcum thermophilum cellobiose dehydrogenase (CDH, SEQ ID NO: 1) variant W316R (Thermothelomyces myriococcoides, UniProt A9XK88, W316R)
T1 sequence (A9XK88 22-828 W316R): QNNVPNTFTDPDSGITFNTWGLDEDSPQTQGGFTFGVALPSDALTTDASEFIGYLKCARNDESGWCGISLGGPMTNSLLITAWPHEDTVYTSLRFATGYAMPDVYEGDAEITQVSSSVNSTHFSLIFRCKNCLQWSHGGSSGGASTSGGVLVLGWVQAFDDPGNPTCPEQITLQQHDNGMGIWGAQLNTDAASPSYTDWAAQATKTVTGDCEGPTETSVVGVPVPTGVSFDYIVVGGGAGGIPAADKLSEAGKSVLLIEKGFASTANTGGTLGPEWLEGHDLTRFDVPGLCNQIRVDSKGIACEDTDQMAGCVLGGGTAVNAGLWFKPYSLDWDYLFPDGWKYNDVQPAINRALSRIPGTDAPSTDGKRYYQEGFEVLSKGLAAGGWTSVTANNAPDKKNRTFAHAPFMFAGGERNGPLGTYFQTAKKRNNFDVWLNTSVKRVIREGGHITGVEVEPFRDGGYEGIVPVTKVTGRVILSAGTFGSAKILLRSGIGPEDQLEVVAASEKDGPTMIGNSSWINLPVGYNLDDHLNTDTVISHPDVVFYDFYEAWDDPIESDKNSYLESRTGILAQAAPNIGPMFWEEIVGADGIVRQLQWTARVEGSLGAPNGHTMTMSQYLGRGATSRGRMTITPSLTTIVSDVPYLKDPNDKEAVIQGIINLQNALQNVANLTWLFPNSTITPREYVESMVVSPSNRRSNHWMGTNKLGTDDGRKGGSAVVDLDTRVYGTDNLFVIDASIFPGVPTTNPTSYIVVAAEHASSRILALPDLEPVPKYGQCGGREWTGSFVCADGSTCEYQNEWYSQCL
Test: Steady-state kinetics, DCIP assay: M. thermophilum CDH W316R
Format: biochemical
Conditions: apparent, pH 4.5, 30° C.
Experimental: Enzyme activity was assayed at 30° C. using either the DCIP (Karapetyan et al., 2005 Journal of Biotechnology 121: 34-48) or cytochrome c (Canevascini et al., 1991, European Journal of Biochemistry 198: 43-52) as electron acceptor. […] Stock solutions of carbohydrates used for kinetic measurements were prepared in the respective buffer and allowed to stand overnight for mutarotation, while stock solutions of electron acceptors were prepared in water and immediately used. The reaction stoichiometry is 1 for the two-electron acceptor DCIP (1 mole of DCIP reduced per mole of carbohydrate oxidized), but 2 for the one-electron acceptor cytochrome c. Kinetic constants were calculated by fitting the observed data to the Henri-Michaelis-Menten equation or to the adapted model for substrate inhibition using nonlinear least-squares regression and the program SigmaPlot (Systat Software, San Jose, Calif., USA). […]
Recombinant wild-type CDH as well as variants were produced in 1 L baffled flasks. […] Increase in activity was monitored using the DCIP and the cytochrome c enzyme assays. […]
The sample was loaded on a 20 mL PHE Sepharose FF column (HR26/20) equilibrated with 50 mM Na-acetate buffer pH 5.5 containing 20% ammonium sulfate. […] Fractions were tested for CDH activity and pooled according to the highest Reinheitszahl (RZ, calculated from the absorbance ratio 420 nm/280 nm). […]

OC[C@H]1O[C@H](O[C@H]2[C@H](O)[C@@H](O)C(O)O[C@@H]2CO)[C@H](O)[C@@H](O)[C@@H]1O (some centres unmarked) [Maltose, maltose]
kcat/KM: 0.09 M⁻¹ s⁻¹
kcat (~ values only estimated by non linear regression): 0.12 s⁻¹
